Patent US20250040545A1, “USE OF SYNERGISTIC COMPOSITIONS BASED ON ZOXAMIDE AND CYFLUFENAMID AS FUNGICIDES IN THE AGRONOMIC FIELD” (Gowan Crop Protection Limited, priority 2023, published 2025)
Several values for one entry are separate records, joined by “and”; a condition that tells them apart may be missing. Identical values can stand only once.

Tests used:
Assay type in all cases: cell-based
Conditions in all cases: single active ingredient
Venturia inaequalis = experiment: In vitro antifungal synergy assay, growth inhibition in 96-well plates (absorbance), Venturia inaequalis
Method: (§1) Compositions consisting of the active ingredients Zoxamide (A) and Cyflufenamid (B) in different weight ratios were tested to evaluate their in vitro synergistic antifungal activity against the following phytopathogenic fungi: Botrytis cinerea, Sclerotinia minor and Venturia inaequalis by comparing them with the single active ingredients (A) and (B).
(§2) The strains in pure culture are kept and stored at 4° C. in a refrigerator on potato dextrose agar (PDA) nutrient substrates. The fungal inoculum was prepared (which, depending on the species of the pathogen, could be a suspension of conidia or a mycelial homogenate) for carrying out the synergy assays.
(§3) For the strains not easily sporulating in vitro, i.e. Sclerotinia minor and Venturia inaequalis, six to eight pieces of mycelium, taken from actively growing cultures, are transferred into a grinding egg containing 6 ml of double-concentration potato dextrose broth (PDB). and some metal balls. The suspension is homogenized with a Pulverisette 23 mini-mill (Fritsch GmbH).
(§4) In the compositions tested, the weight ratios of Zoxamide (A) with respect to Cyflufenamid (B) range from 500:1 to 1:100. For both molecules tested, a stock solution in dimethyl sulfoxide (DMSO) at 160,000 mg/l was prepared which was then serially diluted in sterile demineralized water to obtain the solutions to be tested at concentrations double with respect to the final doses. More specifically, the compositions of the two fungicide molecules (A) and (B) were tested following a checkerboard matrix in order to have, in this way, all possible combinations of the two fungicides within the weight ratios described above.
(§5) Synergy assays were performed in 96-well plates: 50 μl of inoculum were mixed with 50 μl of solution of the compositions consisting of the two active molecules (A) and (B) in each well using the Eppendorf Multipette® System E3 serial dispenser.
(§6) Three wells were used as replicates for each concentration/active ingredient composition.
(§7) All pathogen strains were grown in untreated control wells containing 50 μl of fungal suspension and 50 μl of sterile demineralized water. The inoculated multi-well plates are incubated at 22° C. for 72 hours or 96 or 120 depending on the type of pathogen.
(§8) The sensitivity to the molecules was evaluated as growth inhibition of the fungus and measured in terms of absorbance immediately before and after the incubation period.
(§9) The absorbance was measured for each well using the Infinite® F50 Absorbance Reader (Tecan Group Ltd) spectrophotometer at 405 nm (for mycelial inoculums) and at 492 nm (for conidic inoculums).
(§10) For each strain, the percentage of growth inhibition (GIP) caused by each of the active-ingredient concentrations was calculated using the following formula: […]
(§11) wherein At72-120 and At0 are respectively the absorbances of the treated well and of the untreated control measured at the end and at the beginning of the incubation period. GIP data were used for calculating the potential synergistic effect of the compositions tested using the formula proposed by Colby (1967):
(§12) [formula] • wherein: • GIPt=GIP expected of the active molecule A and B tested at dose p for molecule • A and dose q for molecule B: • GIPa=GIP expected from the molecule A tested at dose p; • GIPb=GIP expected from the molecule B tested at dose q.
(§13) The synergistic effect of the two molecules is indicated when the effectiveness of the mixed combination of A+B […], is higher than the expected effectiveness calculated with the Colby equation (GIPa+b/GIPt>1), as described in literature in Colby, S. R. (1967): “Calculating synergistic and antagonistic responses of herbicide combinations”, Weeds, 15 (1), pages 20-22.

Botrytis cinerea = experiment: In vitro antifungal synergy assay, growth inhibition in 96-well plates (absorbance), Botrytis cinerea
Method: as §1, §2
For the in vitro sporulating strain, i.e. Botrytis cinerea, the conidic suspension was prepared starting from a culture grown on PDA after 4-5 days of incubation in a thermostat at 24° C. to stimulate its sporulation. The conidia were collected in 1 mL of double-concentration PDB and counted under a microscope with a counting chamber to obtain a final inoculum of 4×10^4 conidia/mL.
as §4, §5, §6, §7, §8, §9, §10, §11, §12, §13

Sclerotinia minor = experiment: In vitro antifungal synergy assay, growth inhibition in 96-well plates (absorbance), Sclerotinia minor
Method: as §1, §2, §3, §4, §5, §6, §7, §8, §9, §10, §11, §12, §13

Row | Structure (SMILES) | Effect A, Effect B (GIP) (Venturia inaequalis; dose 0.1 mg/l) | Effect A, Effect B (GIP) (Venturia inaequalis; dose 1 mg/l) | Effect A, Effect B (GIP) (Venturia inaequalis; dose 5 mg/l) | Effect A, Effect B (GIP) (Venturia inaequalis; dose 10 mg/l) | Effect A, Effect B (GIP) (Venturia inaequalis; dose 50 mg/l) | Effect A, Effect B (GIP) (Venturia inaequalis; dose 100 mg/l) | Effect A, Effect B (GIP) (Botrytis cinerea; dose 0.1 mg/l) | Effect A, Effect B (GIP) (Botrytis cinerea; dose 1 mg/l) | Effect A, Effect B (GIP) (Botrytis cinerea; dose 5 mg/l) | Effect A, Effect B (GIP) (Botrytis cinerea; dose 50 mg/l) | Effect A, Effect B (GIP) (Botrytis cinerea; dose 100 mg/l) | Effect A, Effect B (GIP) (Sclerotinia minor; dose 0.1 mg/l) | Effect A, Effect B (GIP) (Sclerotinia minor; dose 1 mg/l) | Effect A, Effect B (GIP) (Sclerotinia minor; dose 5 mg/l) | Effect A, Effect B (GIP) (Sclerotinia minor; dose 10 mg/l) | Effect A, Effect B (GIP) (Botrytis cinerea; dose 10 mg/l) | Effect A, Effect B (GIP) (Sclerotinia minor; dose 50 mg/l) | Effect A, Effect B (GIP) (Sclerotinia minor; dose 100 mg/l)
1 | O=C(Cc1ccccc1)N/C(=N\OCC1CC1)c1c(C(F)(F)F)ccc(F)c1F [Cyflufenamid] | 1.2% | 5.5% | 10.3% | 12.7% | 15.2% and 12.7% | 18.3% and 18.0% | 1.7% | 4.3% | 10.6% | 49.4% | 60.2% | 3.7% | 10.2% | 17.8% | 23.4% |  |  | 
2 | CCC(C)(NC(=O)c1cc(Cl)c(C)c(Cl)c1)C(=O)CCl (centres unmarked) [Zoxamide] |  | 78.0% | 78.8% | 80.0% | 80.1% | 84.5% and 84.0% |  | 5.6% |  | 47.3% | 56.9% | 2.5% | 29.1% |  | 37.6% | 31.2% | 58.2% | 70.3%
